{"source": "patent US12049450B2", "about": "“Pyridyloxy-carboxylate derivative and preparation method therefor, herbicidal composition, and use” (Qingdao Kingagroot Chemical Compound Co., Ltd., priority 2018, dated 2024)", "assay_in_all_cases": "Post-emergence test experiment (greenhouse pot, spray at 2-3 leaf stage)", "format_in_all_cases": "in vivo", "settings_in_all_cases": "1000 g/ha; post-emergence spray at 2-3 leaf stage; assessed after 3 weeks; fresh weight inhibition rate", "key": {"Abutilon theophrasti": {"test_system": "Abutilon theophrasti", "excerpt": "(§1) The activity level standard of harmful plants destruction (i. e. growth inhibition rate) is as follows: • Level 5: the growth inhibition rate is greater than 85%; • Level 4: the growth inhibition rate is equal to or greater than 60% and less than 85%; • Level 3: the growth inhibition rate is equal to or greater than 40% and less than 60%; • Level 2: the growth inhibition rate is equal to or greater than 20% and less than 40%; • Level 1: the growth inhibition rate is equal to or greater than 5% and less than 20%; • Level 0: the growth inhibition rate is less than 5%;\n(§2) The above described growth inhibition rate is fresh weight inhibition rate.\n(§3) Post-emergence test experiment: Monocotyledonous and dicotyledonous weed seeds and main crop seeds (i. e. wheat, corn, rice, soybean, cotton, oilseed, millet and sorghum.) were put into a plastic pot loaded with soil. Then covered with 0.5-2 cm soil, the seeds were allowed to grow in good greenhouse environment. The test plants were treated at 2-3 leaf stage 2 weeks after sowing. The test compounds of the invention were dissolved with acetone respectively, then added with tween-80, and using 1.5 liters per hectare of an emulsible concentrate of methyl oleate as a synergist, and diluted by certain amount of water to certain concentration. The solution was sprayed to the plants with a sprayer. Then the plants were cultured for 3 weeks in the greenhouse, and the experiment result of weed controlling effect after 3 weeks was listed in tables 3-4."}, "Galium spurium": {"test_system": "Galium spurium", "excerpt": "as §1, §2, §3"}, "Monochoria vaginalis": {"test_system": "Monochoria vaginalis", "excerpt": "as §1, §2, §3"}}}
{"compound": "Nc1c(Cl)c(F)nc(OC(CO)C(=O)OCc2ccccc2)c1Cl", "note": "(stereo not drawn) [Compound 48]", "values": [{"measurement": "Activity level (growth inhibition rate) Abutilon theophrasti", "setting": "Abutilon theophrasti", "result": "5 (Level 5: the growth inhibition rate is greater than 85%)"}, {"measurement": "Activity level (growth inhibition rate) Galium spurium", "setting": "Galium spurium", "result": "5 (Level 5: the growth inhibition rate is greater than 85%)"}, {"measurement": "Activity level (growth inhibition rate) Monochoria Vaginalis", "setting": "Monochoria vaginalis", "result": "5 (Level 5: the growth inhibition rate is greater than 85%)"}]}
{"compound": "Nc1c(Cl)c(F)nc(OC(C(=O)OCc2ccccc2)[N+](=O)[O-])c1Cl", "note": "(stereo not drawn) [Compound 49]", "values": [{"measurement": "Activity level (growth inhibition rate) Abutilon theophrasti", "setting": "Abutilon theophrasti", "result": "5 (Level 5: the growth inhibition rate is greater than 85%)"}, {"measurement": "Activity level (growth inhibition rate) Galium spurium", "setting": "Galium spurium", "result": "5 (Level 5: the growth inhibition rate is greater than 85%)"}, {"measurement": "Activity level (growth inhibition rate) Monochoria Vaginalis", "setting": "Monochoria vaginalis", "result": "5 (Level 5: the growth inhibition rate is greater than 85%)"}]}
{"compound": "Nc1c(Cl)c(F)nc(OC(C=O)C(=O)OCc2ccccc2)c1Cl", "note": "(stereo not drawn) [Compound 51]", "values": [{"measurement": "Activity level (growth inhibition rate) Abutilon theophrasti", "setting": "Abutilon theophrasti", "result": "5 (Level 5: the growth inhibition rate is greater than 85%)"}, {"measurement": "Activity level (growth inhibition rate) Galium spurium", "setting": "Galium spurium", "result": "5 (Level 5: the growth inhibition rate is greater than 85%)"}, {"measurement": "Activity level (growth inhibition rate) Monochoria Vaginalis", "setting": "Monochoria vaginalis", "result": "5 (Level 5: the growth inhibition rate is greater than 85%)"}]}
{"compound": "COC(=O)C(Oc1nc(F)c(Cl)c(N)c1Cl)C(=O)OCc1ccccc1", "note": "(stereo not drawn) [Compound 52]", "values": [{"measurement": "Activity level (growth inhibition rate) Abutilon theophrasti", "setting": "Abutilon theophrasti", "result": "5 (Level 5: the growth inhibition rate is greater than 85%)"}, {"measurement": "Activity level (growth inhibition rate) Galium spurium", "setting": "Galium spurium", "result": "5 (Level 5: the growth inhibition rate is greater than 85%)"}, {"measurement": "Activity level (growth inhibition rate) Monochoria Vaginalis", "setting": "Monochoria vaginalis", "result": "5 (Level 5: the growth inhibition rate is greater than 85%)"}]}
{"compound": "Nc1c(Cl)c(F)nc(OC(C(=O)SCc2ccccc2)c2ccoc2)c1Cl", "note": "(stereo not drawn) [Compound 55]", "values": [{"measurement": "Activity level (growth inhibition rate) Abutilon theophrasti", "setting": "Abutilon theophrasti", "result": "5 (Level 5: the growth inhibition rate is greater than 85%)"}, {"measurement": "Activity level (growth inhibition rate) Galium spurium", "setting": "Galium spurium", "result": "5 (Level 5: the growth inhibition rate is greater than 85%)"}, {"measurement": "Activity level (growth inhibition rate) Monochoria Vaginalis", "setting": "Monochoria vaginalis", "result": "5 (Level 5: the growth inhibition rate is greater than 85%)"}]}
{"compound": "Nc1c(Cl)c(F)nc(OC(C(=O)OCc2ccccc2)c2cscn2)c1Cl", "note": "(stereo not drawn) [Compound 56]", "values": [{"measurement": "Activity level (growth inhibition rate) Abutilon theophrasti", "setting": "Abutilon theophrasti", "result": "5 (Level 5: the growth inhibition rate is greater than 85%)"}, {"measurement": "Activity level (growth inhibition rate) Galium spurium", "setting": "Galium spurium", "result": "5 (Level 5: the growth inhibition rate is greater than 85%)"}, {"measurement": "Activity level (growth inhibition rate) Monochoria Vaginalis", "setting": "Monochoria vaginalis", "result": "5 (Level 5: the growth inhibition rate is greater than 85%)"}]}
{"compound": "CCn1nccc1C(Oc1nc(F)c(Cl)c(N)c1Cl)C(=O)OCc1ccccc1", "note": "(stereo not drawn) [Compound 57]", "values": [{"measurement": "Activity level (growth inhibition rate) Abutilon theophrasti", "setting": "Abutilon theophrasti", "result": "5 (Level 5: the growth inhibition rate is greater than 85%)"}, {"measurement": "Activity level (growth inhibition rate) Galium spurium", "setting": "Galium spurium", "result": "5 (Level 5: the growth inhibition rate is greater than 85%)"}, {"measurement": "Activity level (growth inhibition rate) Monochoria Vaginalis", "setting": "Monochoria vaginalis", "result": "5 (Level 5: the growth inhibition rate is greater than 85%)"}]}
{"compound": "Cc1nn(C)cc1C(Oc1nc(F)c(Cl)c(N)c1Cl)C(=O)SCc1ccccc1", "note": "(stereo not drawn) [Compound 58]", "values": [{"measurement": "Activity level (growth inhibition rate) Abutilon theophrasti", "setting": "Abutilon theophrasti", "result": "5 (Level 5: the growth inhibition rate is greater than 85%)"}, {"measurement": "Activity level (growth inhibition rate) Galium spurium", "setting": "Galium spurium", "result": "5 (Level 5: the growth inhibition rate is greater than 85%)"}, {"measurement": "Activity level (growth inhibition rate) Monochoria Vaginalis", "setting": "Monochoria vaginalis", "result": "5 (Level 5: the growth inhibition rate is greater than 85%)"}]}
{"compound": "Nc1c(Cl)c(F)nc(OC(C(=O)OCc2ccccc2)c2ccn(C(F)F)n2)c1Cl", "note": "(stereo not drawn) [Compound 59]", "values": [{"measurement": "Activity level (growth inhibition rate) Abutilon theophrasti", "setting": "Abutilon theophrasti", "result": "5 (Level 5: the growth inhibition rate is greater than 85%)"}, {"measurement": "Activity level (growth inhibition rate) Galium spurium", "setting": "Galium spurium", "result": "5 (Level 5: the growth inhibition rate is greater than 85%)"}, {"measurement": "Activity level (growth inhibition rate) Monochoria Vaginalis", "setting": "Monochoria vaginalis", "result": "5 (Level 5: the growth inhibition rate is greater than 85%)"}]}
